According to publication PMC11599901, “Enhancing the solubility and antibacterial activity of novel molecular salts of enrofloxacin drug with isomeric pyridinedicarboxylic acids” (Scientific Reports, 2024):
In brackets after ≈: the same amount, converted by molar mass. Read-outs that look alike come from different tables or passages of the source.

What was measured:
[1] = Water solubility by the gravimetric method; type: physicochemical; settings: 25 °C
Description: Temperature was maintained using a calibrated UltraUB 20 F with a DLK 25 circulating cooler (Lauda, Germany). A specific amount of the substance under investigation was carefully weighed using a precise analytical balance (Sartorius RC 210D). The mixture of salts and water was thoroughly mixed to ensure complete dissolution of the substance under investigation and left for 2 h to achieve equilibrium between the solution and the precipitate. Then, the solution was filtered, and the remaining precipitate was dried to a constant mass to remove the solvent. The difference between the initial mass of the substance m0 and the mass of the undissolved substance m1 allowed for the determination of the mass of the substance dissolved in the given mass of solvent.
Each measurement was taken in triplicate.

[2] = cited from earlier work
[3] = system: Pseudomonas aeruginosa ATCC 15442; assay: Broth microdilution antibacterial activity (MIC/MBC), CLSI M07; type: cell-based; settings: 24 h at 37 °C; for MBC (minimal bactericidal concentration) / MIC (minimal inhibitory concentration): Mueller-Hinton medium
Description: (§1) The antibacterial activity of the enrofloxacin salts was determined against two Gram-positive strains (Staphylococcus aureus ATCC 6358, Streptococcus pyogenes ATCC 19615) and two Gram-negative bacteria (Escherichia coli ATCC 25922, Pseudomonas aeruginosa ATCC 15442). The determination was performed in accordance with Clinical and Laboratory Standards Institute (CLSI) standard […] for antimicrobial susceptibility testing of aerobic bacteria. The assessment was performed using the broth microdilution method with Mueller-Hinton medium. The tested samples were accompanied by biotic controls, i.e. without the addition of newly synthesized compounds, and abiotic controls, i.e. without the addition of microorganisms. All probes were incubated for 24 h at 37 °C. Microbial growth was measured using a microplate reader (Multiskan FC Microplate Photometer, ThermoFisher Scientific, Pudong, Shanghai, China) at λ = 630 nm. The follow were determined: the minimal inhibitory concentration (MIC), defined as the lowest concentration of a compound that prevents visible growth of bacteria, and minimal bactericidal concentration (MBC), defined as the lowest concentration of a substance that completely limits the viability of microorganisms.

[4] = system: Streptococcus pyogenes ATCC 19615; assay: as above; type: cell-based; settings: 24 h at 37 °C; for MBC (minimal bactericidal concentration) / MIC (minimal inhibitory concentration): Mueller-Hinton medium
Description: as §1

[5] = system: Escherichia coli ATCC 25922; assay: as above; type: cell-based; settings: 24 h at 37 °C; for MBC (minimal bactericidal concentration) / MIC (minimal inhibitory concentration): Mueller-Hinton medium
Description: as §1

[6] = system: Staphylococcus aureus ATCC 6358; assay: as above; type: cell-based; settings: 24 h at 37 °C; for MBC (minimal bactericidal concentration) / MIC (minimal inhibitory concentration): Mueller-Hinton medium
Description: as §1

Row | Compound | MBC (minimal bactericidal concentration) [3] [µg/mL] | MIC (minimal inhibitory concentration) [3] [µg/mL] | MBC (minimal bactericidal concentration) [4] [µg/mL] | MIC (minimal inhibitory concentration) [4] [µg/mL] | MBC (minimal bactericidal concentration) [5] [µg/mL] | MIC (minimal inhibitory concentration) [5] [µg/mL] | MBC (minimal bactericidal concentration) [6] [µg/mL] | MIC (minimal inhibitory concentration) [6] [µg/mL] | further results
1 | CCN1CCN(c2cc3c(cc2F)c(=O)c(C(=O)O)cn3C2CC2)CC1 [EFX, 1-cyclopropyl-7-(4-ethyl-1-piperazinyl)-6-fluoro-1,4-dihydro-4-oxo-3-quinolinecarboxylic acid, reference compound] | – | – | – | – | – | – | – | – | solubility at 2 h ([1]; thermodynamic from solid): 176 µg/mL (≈ 490 µM); solubility in water ([2]; ref 34): 610 µg/mL (≈ 1700 µM); solubility in water ([2]; ref 41): 140 µg/mL (≈ 390 µM); MBC ([3]; ATCC15442, Mueller-Hinton medium, read-out: MBC (minimal bactericidal concentration)): 1 µg/mL (≈ 2.78 µM); MIC ([3]; ATCC15442, Mueller-Hinton medium, read-out: MIC (minimal inhibitory concentration)): 0.5 µg/mL (≈ 1.39 µM); MBC ([4]; ATCC19615, Mueller-Hinton medium, read-out: MBC (minimal bactericidal concentration)): 0.125 µg/mL (≈ 0.348 µM); MIC ([4]; ATCC19615, Mueller-Hinton medium, read-out: MIC (minimal inhibitory concentration)): 0.0625 µg/mL (≈ 0.174 µM); MBC ([5]; ATCC25922, Mueller-Hinton medium, read-out: MBC (minimal bactericidal concentration)): 0.0078 µg/mL (≈ 0.0217 µM); MIC ([5]; ATCC25922, Mueller-Hinton medium, read-out: MIC (minimal inhibitory concentration)): 0.0078 µg/mL (≈ 0.0217 µM); MBC ([6]; ATCC6358, Mueller-Hinton medium, read-out: MBC (minimal bactericidal concentration)): 0.25 µg/mL (≈ 0.696 µM); MIC ([6]; ATCC6358, Mueller-Hinton medium, read-out: MIC (minimal inhibitory concentration)): 0.0625 µg/mL (≈ 0.174 µM)
2 | CCN1CCN(c2cc3c(cc2F)c(=O)c(C(=O)O)cn3C2CC2)CC1.O=C(O)c1cccnc1C(=O)O [EFX·Py2,3DCA] | 2 | 1 | 0.25 | 0.125 | 0.031 | 0.0078 | 0.25 | 0.25 | –
3 | CCN1CCN(c2cc3c(cc2F)c(=O)c(C(=O)O)cn3C2CC2)CC1.O=C(O)c1ccnc(C(=O)O)c1 [EFX·Py2,4DCA] | 2 | 1 | 0.25 | 0.125 | 0.031 | 0.0078 | 0.25 | 0.25 | –
4 | CCN1CCN(c2cc3c(cc2F)c(=O)c(C(=O)O)cn3C2CC2)CC1.O.O=C(O)c1ccc(C(=O)O)nc1 [EFX·Py2,5DCA·H2O] | 2 | 1 | 0.25 | 0.125 | 0.031 | 0.0078 | 0.25 | 0.25 | –
5 | CCN1CCN(c2cc3c(cc2F)c(=O)c(C(=O)O)cn3C2CC2)CC1.O.O=C(O)c1cccc(C(=O)O)n1 [EFX·Py2,6DCA·H2O] | 2 | 1 | 0.25 | 0.125 | 0.015 | 0.0078 | 0.25 | 0.25 | –
6 | O=C(O)c1ccc(C(=O)O)nc1 [Py2,5DCA, pyridine-2,5-dicarboxylic acid] | – | – | – | – | – | – | – | – | solubility in water [1]: 1237 µg/mL (≈ 7400 µM)
7 | O=C(O)CC(O)C(=O)O (stereo not drawn) [malic acid] | – | – | – | – | – | – | – | – | solubility in water ([2]; ref 41): 16130 µg/mL (≈ 120000 µM)
